Our source for the melting point values is a melting point compilation (Tetko et al.; mined from patent text by program, amines drawn as free bases though some values may be those of a salt).

The structures appear in SMILES notation.

In turn, `O=c1[nH]cc(Cl)cc1Br` yielded a melting point of 170 to 173 °C. On to `COc1cc(Nc2nc3cccc(-c4ccc(S(=O)(=O)N(C)C)cc4)c3o2)cc(OC)c1OC`, for which the melting point was in the range of 230 to 233 °C. In the case of `CC(=O)SCC(C(=O)N1CCC(=C2c3ccc(Cl)cc3CCc3cccnc32)CC1)c1ccccc1` (centres undefined) it was 92.7 to 93 °C; in that of `CCOCc1nc2c(N)nc3cc(-c4cccnc4)ccc3c2n1CC1CCCCN1S(C)(=O)=O` (centres undefined), 152 to 154 °C. `CCCc1c(C(=O)NCc2ccc(-c3ccc(OCC(=O)O)cc3)cc2)cnn1-c1ccccc1` displayed a melting point of 190 to 192 °C. As to `CNC(=O)c1cnn2c(C(=O)N3CCN(C(=O)OC(C)(C)C)CC3)c(Cc3cccc(F)c3C)c(-c3ccccc3)c2c1`, the melting point lay in the range of 153 to 154 °C. On to `O=c1c(-c2ccccc2Cl)cc2cnc(NC3C4CN(Cc5ccccc5)CC43)nc2n1C1CCNC1` (centres undefined), for which the melting point is 203 to 206 °C. `O=C(Nc1ccc(I)cc1)c1ccccc1-c1ccc(C(F)(F)F)cc1` yielded a melting point of 147 °C.

Consider `CCCCc1oc2ccccc2c1C(=O)c1cc(Br)c(O[C@H](Cc2ccccc2)C(=O)O)c(Br)c1`, for which the melting point was in the range of 56 to 58 °C. Regarding `CCC1(c2cccs2)OCC(=O)Nc2ccc(-c3ccc(F)c(C#N)c3)cc21` (centres undefined), the melting point was in the range of 197 to 199 °C.

`O=C(O)CCc1cc(Cl)cc2nc(-c3ccccc3Cl)oc12` showed a melting point of 152 to 154 °C. In turn, `CC(C)(C)OC(=O)CCC1CC(O)C(=O)N1` (centres undefined) yielded a melting point of 94 to 95 °C. Next, `CC(C)(CCOc1ccc(Cl)cc1)C(=O)Cn1cncn1`: 188 to 190 °C; `Cc1cccc(COCCCC(=O)O)c1`: 53 to 54 °C.

Regarding `Cc1ccccc1-c1c2c(cc3ccc(O)cc13)-c1ccc(O)cc1CO2`, the melting point was in the range of 193 to 196 °C. In the case of `O=C(O)COc1cccc2c1CCC(Cc1coc(C(c3ccccc3)c3ccccc3)n1)C2` (centres undefined) it was 158 to 160 °C; in that of `O=C(CCC(O)c1ccccc1)NC1CCCCC1` (centres undefined), 91 to 93 °C; in that of `CN1CNC(=S)N(c2ccc(C(F)(F)F)cc2)C1`, 163 to 165 °C. Regarding `Cc1oc2c(-c3ccc(F)cc3)c(-c3ccc(S(C)(=O)=O)cc3)nn2c1-c1cccs1`, the melting point is 240 to 241 °C.

`CC1CCC(N(CC2CCC(CN(C(=O)Nc3ccc(N(C)C)cc3)C3CCC(C)CC3)CC2)C(=O)Nc2ccc(N(C)C)cc2)CC1` (centres undefined) gave a melting point of 150 to 153 °C. In turn, `COc1ccc2c(c1)c(CCc1cc(=O)n(C3CCCCC3)[nH]1)c(C)n2C(=O)c1ccc(Cl)cc1` came in with a melting point of 110 °C. In the case of `CC(=O)NCCNCc1ccc(-c2cc3ncnc(Nc4ccc5[nH]ccc5c4)c3s2)cc1` it was 142 to 155 °C. Consider `Cc1cccc(-n2ccc(=O)c(-c3ccnn3-c3ccccc3)n2)c1`, for which the melting point was 115 to 116 °C.

`C#Cc1cccc(Nc2ncnc3cc(OCCOC(C)=O)c(OCCOC)cc23)c1` displayed a melting point of 134 to 135 °C.

For `CC(=O)Nc1cnc(-c2ccc(CC(C)N3CC(c4cccc(Cl)c4)OC3=O)cc2)o1` (centres undefined), the melting point fell in the range of 78 to 88 °C. Consider `CCOC(=O)c1c(C)nn(C)c1S(=O)(=O)NC(=S)Nc1nc(C)cc(OC)n1`, for which the melting point lay within 157 to 158 °C.

As to `Cc1sc(-c2nccs2)c2c1C(=O)CC(C)(C)C2`, the melting point fell in the range of 98 to 100 °C.

The compound `CCCCc1nc2c(C#N)ncc(C)c2[nH]1` gave a melting point of 197 to 198 °C. In the case of `COc1ccccc1Sc1ccc(C=O)c(Cl)c1Cl` it was 137 to 139 °C; in that of `CCCN(c1ccncc1F)n1c(C)cc2ccccc21`, 5 °C; in that of `Oc1cccc(C(O)CNCCCCn2cnc3ccccc32)c1` (centres undefined), 58 to 62 °C. As to `CCOC(=O)Cc1ccc(NC(=O)C(COc2ccccc2)NS(=O)(=O)c2ccc(F)cc2)cc1` (racemic), the melting point lay within 122 to 124 °C. In the case of `COc1ccc2c(c1)CN(Cc1c[nH]c3ccccc13)C2` it was 178 to 180 °C.

The compound `COCc1cc(-c2csc(N)n2)on1` returned a melting point of 137 to 138 °C. As for `COc1ccc(C2=NN(Cc3ccc(C(=O)O)cc3)C(=O)[C@H]3CCCC[C@@H]23)cc1OC` (relative stereo), the melting point lay within 135 to 139 °C.

On to `COC(=O)C1=C(C)NC(C)=C(C#N)C1c1cccc(N)c1` (centres undefined), for which the melting point was 234 to 235 °C. `CCCCCCCCn1nnc(NC(=O)Nc2c(C(C)C)cccc2C(C)C)n1` returned a melting point of 139 to 140 °C. `CC(C)c1nn(-c2nc3ccccc3s2)c(-c2ccc(F)cc2)c1C=CC1CC(O)CC(=O)O1` (centres undefined) registered a melting point of 168 to 170 °C. In the case of `COc1ccc2c(C)cccc2c1C(F)(F)F` it was 70 to 71 °C; in that of `CCOCC1COc2c(cc3ncc(C(=O)O)c(O)c3c2Cl)O1` (centres undefined), 266 to 267 °C. `CN1CCN(c2ccc(-c3cnn4c(N)c(-c5ccccc5Cl)cnc34)cc2)CC1` showed a melting point of 197 to 200 °C.

In the case of `COc1cccc2c1OCC(C(=O)O)O2` (centres undefined), the melting point is 85 to 87 °C. Turning to `COc1ccc(CC(=O)Nc2cc(-c3c(-c4cccc(C)c4)nc4cccnn34)ccn2)cc1`, the melting point was 213 to 214 °C. The compound `O=C(O)C=CCCCc1cccc2cncn12` gave a melting point of 142 to 144 °C. In the case of `FC(F)(F)c1ccc2nc(N3CCN(c4ncccc4Cl)CC3)[nH]c2c1` it was 208 to 210 °C. The compound `Cc1cccc2c1C(=O)C(COC(=O)Nc1ccccc1)(COC(=O)Nc1ccccc1)CS2=O` (centres undefined) gave a melting point of 76 to 82 °C. In turn, `O=C(NS(=O)(=O)c1ccc(Cl)cc1)N1CC(c2ccccc2)C(c2ccc(Cl)cc2)=N1` (centres undefined) displayed a melting point of 211 to 214 °C.

`Cc1cccc(C(C(O)C(C)(C)C)n2ccnc2)c1` (centres undefined) displayed a melting point of 126 °C. Next, `Oc1cccc(C(O)CCCCCOc2cccc(Cl)c2)c1` (centres undefined): 125 to 127 °C; `NC(=O)C1=CCCNC1`: 122 to 124 °C; `NC(=O)c1ccc(F)c2c1OCC(N(CCCCc1c[nH]c3ccc(F)cc13)CC1CC1)C2` (centres undefined): 116 °C. In the case of `O=C1CCC(N2C(=O)c3ccc(CNC(=O)c4ccc5ccccc5n4)cc3C2=O)C(=O)N1` (centres undefined) it was 205 to 207 °C. With `COC(=O)c1c(N)ncn1C(c1ccccc1)c1ccccc1`, the melting point was in the range of 199 to 201 °C. In turn, `Cc1nn(-c2ccccn2)c2[nH]c3ccccc3c(=S)c12` displayed a melting point of 252 to 253 °C. In the case of `CS(=O)(=O)N1CCN(c2nc(N)nc(-c3cc(Cl)ccc3Cl)n2)CC1` it was 184 to 186 °C. Next, `Cc1ccsc1C=C(O)C(=O)O`: 184 to 185 °C.

Take `COc1cc([N+](=O)[O-])c(O)c(OC)c1OC`: the melting point is 72 to 73 °C. `Nc1ccc(CNC(=O)C2Cc3ccccc3N2S(=O)(=O)c2ccc(-c3cccc(C(F)(F)F)c3)cc2)cc1` (centres undefined) had a melting point of 84 °C. Compound `C=CCSc1nc(=O)[nH]cc1F` came in with a melting point of 150 to 152 °C. Turning to `COc1ccc2ccc(C(=O)NC(C)C)c(OC(C)C)c2c1`, the melting point lay within 62 to 64 °C. In the case of `COc1cc(C)cc(-c2nn(CC#N)cc2-c2ccnc(S(C)(=O)=O)n2)c1` it was 238 °C. Next, `CN(c1ncnc2c1ncn2Cc1ccccc1F)n1cccc1`: 147 to 149 °C; `O=C1CCC(O)=C1Cc1ccc(Br)cc1`: 199 to 201 °C; `CCCc1coc2c(Cc3ccc(C(C)C)cc3)c(C)cc(C)c12`: 89 to 90 °C.

For the compound `Cc1ccc(C2CC(n3cncn3)c3ccccc3N2)cc1` (centres undefined), the melting point lay in the range of 146 to 148 °C. As for `Cc1cc(/C=C/C(=O)N(C)O)c(C)n1-c1ccc(C(=O)N(C)C)cc1`, the melting point fell in the range of 172 to 174 °C.

For the compound `ClCCOc1ccc(/C=C/c2nc3ccccc3s2)cc1`, the melting point fell in the range of 92 to 94 °C. Take `CCOC(=O)c1ncn2c1CN=C(c1ccccc1F)c1cc(Cl)ccc1-2`: the melting point lay within 195 to 196 °C. In the case of `O=C(O)CN(CC(=O)O)CC(=O)Nc1cc(C(F)(F)F)cc(C(F)(F)F)c1` it was 201 °C. As to `Cc1c(-c2ccc(C(F)(F)F)cc2)n(Cc2ccc(OCCBr)cc2)c2ccc(OCc3ccccc3)cc12`, the melting point is 106 to 109 °C. `CN(CCN)C(=O)N1N=C2c3cc(F)ccc3OC[C@@H]2[C@@H]1c1ccccc1` (racemic): the melting point came to 113 °C. In the case of `CCOC(=O)c1cnc(Cl)cc1NC`, the melting point lay in the range of 61.4 to 63.1 °C. On to `O=c1c2ccccc2c(-c2ccccc2)cn1CCCN1CCCCC1`, for which the melting point was 118 °C. In turn, `CCCc1nc2c(C)ccnc2n1Cc1ccc2[nH]ccc2c1` gave a melting point of 110 to 112 °C. Next, `CC1(C)CCCC(C)(C)N1c1nc(Cl)cc(Cl)n1`: 89 to 90 °C; `CC(C)(C)OC(=O)N1CC(CC(=O)O)c2ccccc21` (single isomer, unassigned; (+)): 137 to 138 °C.

For `CC(OCc1ccc(Cl)c2ccccc12)(C(=O)O)C(F)(F)F` (centres undefined), the melting point lay within 120 to 121 °C.

With `COC(=O)c1cc(OCc2nc(-c3ccccc3)sc2C)no1`, the melting point fell in the range of 89 to 90 °C. Next, `O=C(O)CCCCCCCn1nnc(-c2ccccc2)c1-c1ccccc1`: 103 to 104 °C; `CC(=O)Oc1ccc(/C=C/c2cc(C)cc(C)c2)cc1`: 84.9 to 85 °C. Next, `COc1ccc(CNc2c(C)c(C)c3oc(C)c(-c4ccc(F)cc4)c3c2C)cc1`: 100 to 102 °C; `CC(=O)Nc1ccc(C(=O)N2CCOCC2)cc1N`: 198 to 200 °C; `CCOC(=O)c1cnc2c(cnn2CC)c1OCC`: 112 to 115 °C. In the case of `Oc1ccccc1NCCCCCCBr` it was 124 to 126 °C. Take `O=C(O)c1cnn2c1NCC=C2c1cccc(C(F)(F)F)c1`: the melting point lay in the range of 175 to 177 °C. Next, `CCCCCCCCCCCCCCCC(=O)OCC1OC(N2CNC(N)=NC2=O)CC1O` (centres undefined): 123 to 124 °C.

Consider `CC(=Cc1ccc(O)cc1)C(=O)O`, for which the melting point lay within 204 to 205 °C. In the case of `CCCCC1(CCCC)NC(=O)c2ccccc2N1C` it was 77 to 78 °C.

Take `CN1CCN(C(=O)CCCCCNC(=O)c2cc(OCc3ccccc3)ccc2OCc2ccccc2)CC1`: the melting point was 78 to 79 °C.
